14 molecules from ChEMBL document CHEMBL5512695, “Discovery of N-Substituted Acetamide Derivatives as Promising P2Y14R Antagonists Using Molecular Hybridization Based on Crystallographic Overlay” (J Med Chem, 2024) can be followed below.

Where only a bound is given, the exact number is not on record here.

Series [1] is described as follows: Stability in SIF assessed as half life. The class given is ADME.
The target of the next series is Cytochrome P450 2C9 (Homo sapiens, UniProt P11712). As to the kind of experiment: Inhibition of CYP2C9 in human liver microsomes using diclofenac as substrate preincubated for 10 mins followed by substrate addition measured after 30 mins by LC/MS analysis. Format: ADME, Microsome. A general note: Microsomes from liver hold many membrane-bound enzymes, among them those of drug oxidation.

The nature of series [2]: Stability in human liver microsomes assessed as half life measured for 45 mins by LC-MS/MS analysis. Format: ADME, Microsome.
The target in a further series is Cytochrome P450 2C19 (Homo sapiens, UniProt P33261). Description: Inhibition of CYP2C19 in human liver microsomes using S-mephenytoin as substrate preincubated for 10 mins followed by substrate addition measured after 30 mins by LC/MS analysis. The class given is ADME, Microsome.
The nature of series [3]: Stability in SGF assessed as half life. The class given is ADME.
A further series addresses T1, Cytochrome P450 1A2 (Homo sapiens, UniProt P05177).
T1 sequence (P05177 whole entry): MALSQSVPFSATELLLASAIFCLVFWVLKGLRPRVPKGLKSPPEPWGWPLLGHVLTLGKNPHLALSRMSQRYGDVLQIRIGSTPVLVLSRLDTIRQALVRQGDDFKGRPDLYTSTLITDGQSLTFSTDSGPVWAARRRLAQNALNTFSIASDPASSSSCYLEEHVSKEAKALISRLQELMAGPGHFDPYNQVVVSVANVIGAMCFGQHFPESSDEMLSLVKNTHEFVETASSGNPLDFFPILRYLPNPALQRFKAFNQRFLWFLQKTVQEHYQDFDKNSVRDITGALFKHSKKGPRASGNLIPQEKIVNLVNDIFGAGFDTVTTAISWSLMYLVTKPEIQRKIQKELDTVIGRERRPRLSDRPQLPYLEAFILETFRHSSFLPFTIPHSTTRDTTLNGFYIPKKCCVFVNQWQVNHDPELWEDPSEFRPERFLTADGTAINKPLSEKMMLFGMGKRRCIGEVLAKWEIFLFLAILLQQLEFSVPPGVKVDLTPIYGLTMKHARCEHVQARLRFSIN
As to the kind of experiment: Inhibition of CYP1A2 in human liver microsomes using phenacetin as substrate preincubated for 10 mins followed by substrate addition measured after 30 mins by LC/MS analysis. Format: ADME, Microsome.

Series [4] is described as follows: Oral bioavailability in SD […] at 20 mg/kg measured for 24 hrs. The class given is ADME, organism-based. Conditions: in vivo.
Series [5] addresses Voltage-gated inwardly rectifying potassium channel KCNH2 (Homo sapiens, UniProt Q12809). Description: Inhibition of hERG expressed in HEK293 by whole cell Q-patch analysis. The class given is toxicity, cell-based. A general note: The hERG channel carries a current that helps repolarise heart muscle cells.
The subject of the next series is HEK-293T. Description: Cytotoxicity against MSU/LPS-stimulated HEK293T cells assessed as decrease in cell viability at 256 uM incubated for 24 hrs by SRB assay. Format: toxicity, cell-based. Conditions: human. For orientation: In SRB staining, fixed cells bind dye roughly in proportion to their protein.
Series [6] in a line: Tmax in SD […] at 10 mg/kg, iv measured for 24 hrs. Format: ADME, organism-based. Conditions: in vivo.
For the next series, the target named is Cytochrome P450 3A4 (Homo sapiens, UniProt P08684). As to the kind of experiment: Inhibition of CYP3A4 in human liver microsomes using midazolam as substrate preincubated for 10 mins followed by substrate addition measured after 30 mins by LC/MS analysis. The class given is ADME, Microsome.
Series [7] can be described thus: AUC (0 to 24 hrs) in SD […] at 10 mg/kg, iv. The class given is ADME, organism-based. The conditions noted are these: in vivo.
Series [8] is described as follows: Half life in SD […] at 20 mg/kg, po measured for 24 hrs. Format: ADME, organism-based. The conditions noted are these: in vivo.
A short description of series [9]: Cmax in SD […] at 10 mg/kg, iv measured for 24 hrs. The class given is ADME, organism-based. Conditions: in vivo.
Series [10] can be described thus: Clearance in SD […] at 10 mg/kg, iv measured for 24 hrs. Format: ADME, organism-based. Conditions: in vivo.
The nature of series [11]: Tmax in SD […] at 20 mg/kg, po measured for 24 hrs. The class given is ADME, organism-based. The conditions noted are these: in vivo.
Series [12] in a line: Half life in SD […] at 10 mg/kg, iv measured for 24 hrs. The class given is ADME, organism-based. Conditions: in vivo.
Series [13] can be described thus: AUC (0 to 24 hrs) in SD […] at 20 mg/kg, po. The class given is ADME, organism-based. The conditions noted are these: in vivo.
Series [14] is described as follows: Cmax in SD […] at 20 mg/kg, po measured for 24 hrs. Format: ADME, organism-based. Conditions: in vivo.
A further series concerns the target P2Y purinoceptor 6 (Homo sapiens, UniProt Q15077). As to the kind of experiment: Inhibition of human P2Y6R stably expressed in UDP-stimulated HEK293 cells incubated for 0.5 hrs by IP3 production assay. The class given is functional, cell-based.
The target of a further series is P2Y purinoceptor 12 (Homo sapiens, UniProt Q9H244). Description: Inhibition of human P2Y12R stably expressed in 2-MeSADP -stimulated HEK293 cells incubated for 0.5 hrs by cAMP production assay. The class given is functional, cell-based.
The test system of a further series is HUVEC. Description: Cytotoxicity against MSU/LPS-stimulated HUVEC cells assessed as decrease in cell viability at 256 uM incubated for 24 hrs by SRB assay. The class given is toxicity, cell-based. Conditions: human.
Series [15] is described as follows: Clearance in SD […] at 20 mg/kg, po measured for 24 hrs. The class given is ADME, organism-based. Conditions: in vivo.
A further series deals with Cytochrome P450 2D6 (Homo sapiens, UniProt P10635). Description: Inhibition of CYP2D6 in human liver microsomes using dextromethorphan as substrate preincubated for 10 mins followed by substrate addition measured after 30 mins by LC/MS analysis. The class given is ADME, Microsome.
Series [16] addresses T2, P2Y purinoceptor 14 (Homo sapiens) (UniProt Q15391).
T2 sequence (whole entry): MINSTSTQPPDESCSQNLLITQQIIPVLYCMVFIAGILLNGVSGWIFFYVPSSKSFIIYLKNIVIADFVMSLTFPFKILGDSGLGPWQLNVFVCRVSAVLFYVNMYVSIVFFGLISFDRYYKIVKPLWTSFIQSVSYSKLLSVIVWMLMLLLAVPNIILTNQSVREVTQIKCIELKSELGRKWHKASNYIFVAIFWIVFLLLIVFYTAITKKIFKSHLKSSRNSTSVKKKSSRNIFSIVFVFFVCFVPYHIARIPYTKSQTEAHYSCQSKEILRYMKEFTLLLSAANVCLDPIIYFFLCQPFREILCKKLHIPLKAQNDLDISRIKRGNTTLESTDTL
The conditions noted are these: time 30.0 min.

In the next series the target is T3, P2Y purinoceptor 14 (Homo sapiens, UniProt Q15391).
T3 sequence (Q15391 whole entry): T2 sequence (whole entry)
Description: Antagonist activity at human P2Y14R stably expressed in HEK293 cells assessed as inhibition of forskolin-[…] cAMP production incubated for 30 mins by cAMP-Glo assay. Format: functional, cell-based.

The mark [17] stands for this setting: HEK293, filed as antagonist, dose 100.0 nM.

P2Y purinoceptor 12, sequence (Q9H244 whole entry): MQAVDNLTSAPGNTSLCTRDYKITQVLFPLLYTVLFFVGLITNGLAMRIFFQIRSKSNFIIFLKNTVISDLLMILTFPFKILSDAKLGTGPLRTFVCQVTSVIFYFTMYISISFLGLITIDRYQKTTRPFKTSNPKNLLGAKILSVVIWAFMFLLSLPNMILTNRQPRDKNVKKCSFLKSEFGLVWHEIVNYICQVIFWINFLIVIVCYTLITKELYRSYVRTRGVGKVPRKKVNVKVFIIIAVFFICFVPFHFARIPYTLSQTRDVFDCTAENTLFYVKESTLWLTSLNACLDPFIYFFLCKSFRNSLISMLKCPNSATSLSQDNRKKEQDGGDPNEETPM
Voltage-gated inwardly rectifying potassium channel KCNH2, sequence (Q12809 whole entry): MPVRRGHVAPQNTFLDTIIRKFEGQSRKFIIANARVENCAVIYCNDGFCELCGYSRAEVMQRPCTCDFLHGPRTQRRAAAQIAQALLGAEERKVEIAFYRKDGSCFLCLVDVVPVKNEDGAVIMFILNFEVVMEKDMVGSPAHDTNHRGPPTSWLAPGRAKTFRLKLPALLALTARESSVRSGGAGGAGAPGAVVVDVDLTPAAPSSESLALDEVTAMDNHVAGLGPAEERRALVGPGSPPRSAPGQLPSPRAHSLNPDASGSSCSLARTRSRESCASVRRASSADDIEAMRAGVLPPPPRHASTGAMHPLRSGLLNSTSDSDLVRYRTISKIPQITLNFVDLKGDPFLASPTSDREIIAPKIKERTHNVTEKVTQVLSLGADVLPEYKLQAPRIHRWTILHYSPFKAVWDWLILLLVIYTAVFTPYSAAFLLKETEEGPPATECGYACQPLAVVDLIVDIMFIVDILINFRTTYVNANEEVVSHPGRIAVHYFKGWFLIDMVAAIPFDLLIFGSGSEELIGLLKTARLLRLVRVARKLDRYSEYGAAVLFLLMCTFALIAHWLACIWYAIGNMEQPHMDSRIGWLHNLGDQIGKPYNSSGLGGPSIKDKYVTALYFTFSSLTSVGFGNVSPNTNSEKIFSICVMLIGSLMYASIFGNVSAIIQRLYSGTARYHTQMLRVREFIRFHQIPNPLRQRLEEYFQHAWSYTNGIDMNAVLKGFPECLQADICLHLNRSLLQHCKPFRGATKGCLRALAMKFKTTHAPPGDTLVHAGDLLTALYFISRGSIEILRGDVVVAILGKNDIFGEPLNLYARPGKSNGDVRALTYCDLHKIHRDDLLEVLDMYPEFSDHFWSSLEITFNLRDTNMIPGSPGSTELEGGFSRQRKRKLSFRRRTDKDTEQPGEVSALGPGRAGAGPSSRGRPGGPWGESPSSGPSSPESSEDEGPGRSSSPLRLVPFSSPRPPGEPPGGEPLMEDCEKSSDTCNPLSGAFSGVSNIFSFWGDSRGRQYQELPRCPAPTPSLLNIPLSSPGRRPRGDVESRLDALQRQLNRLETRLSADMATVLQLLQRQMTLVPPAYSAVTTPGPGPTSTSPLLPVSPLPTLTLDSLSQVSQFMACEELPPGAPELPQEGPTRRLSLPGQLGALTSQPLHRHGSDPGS
P2Y purinoceptor 6, sequence (Q15077 whole entry): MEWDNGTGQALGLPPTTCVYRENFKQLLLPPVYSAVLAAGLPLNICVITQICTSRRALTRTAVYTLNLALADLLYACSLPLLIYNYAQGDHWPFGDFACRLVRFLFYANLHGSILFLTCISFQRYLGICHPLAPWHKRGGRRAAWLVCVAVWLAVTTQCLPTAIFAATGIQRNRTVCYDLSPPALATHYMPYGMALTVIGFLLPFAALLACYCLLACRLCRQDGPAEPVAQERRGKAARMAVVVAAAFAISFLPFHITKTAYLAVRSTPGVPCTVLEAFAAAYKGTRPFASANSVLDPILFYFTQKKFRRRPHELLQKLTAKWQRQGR
Cytochrome P450 3A4, sequence (P08684 whole entry): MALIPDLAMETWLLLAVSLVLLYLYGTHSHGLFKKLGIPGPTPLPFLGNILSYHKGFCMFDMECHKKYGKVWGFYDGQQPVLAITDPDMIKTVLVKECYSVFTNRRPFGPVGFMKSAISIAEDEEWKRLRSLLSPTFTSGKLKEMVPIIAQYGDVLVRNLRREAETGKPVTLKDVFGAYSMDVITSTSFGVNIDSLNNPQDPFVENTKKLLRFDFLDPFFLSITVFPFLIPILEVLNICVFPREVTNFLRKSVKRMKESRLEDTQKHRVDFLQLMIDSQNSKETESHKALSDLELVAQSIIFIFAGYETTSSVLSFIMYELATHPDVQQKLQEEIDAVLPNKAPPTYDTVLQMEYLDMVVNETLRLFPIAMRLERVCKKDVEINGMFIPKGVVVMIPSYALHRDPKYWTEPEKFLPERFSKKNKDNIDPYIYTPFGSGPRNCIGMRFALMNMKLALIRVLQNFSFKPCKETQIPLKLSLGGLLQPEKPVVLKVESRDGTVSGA
Cytochrome P450 2C19, sequence (P33261 whole entry): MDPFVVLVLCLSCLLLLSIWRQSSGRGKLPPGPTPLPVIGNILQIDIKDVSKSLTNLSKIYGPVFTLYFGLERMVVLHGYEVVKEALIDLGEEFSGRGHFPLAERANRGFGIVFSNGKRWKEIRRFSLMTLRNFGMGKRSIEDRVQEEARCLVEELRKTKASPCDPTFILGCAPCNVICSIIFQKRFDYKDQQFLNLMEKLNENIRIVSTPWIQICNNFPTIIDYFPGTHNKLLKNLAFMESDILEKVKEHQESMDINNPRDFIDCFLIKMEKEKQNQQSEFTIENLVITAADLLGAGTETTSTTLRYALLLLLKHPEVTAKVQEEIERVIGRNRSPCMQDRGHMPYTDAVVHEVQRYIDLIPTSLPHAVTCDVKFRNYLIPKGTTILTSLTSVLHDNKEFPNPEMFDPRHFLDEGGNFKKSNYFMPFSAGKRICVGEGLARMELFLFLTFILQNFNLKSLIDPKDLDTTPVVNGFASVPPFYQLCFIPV
Cytochrome P450 2D6, sequence (P10635 whole entry): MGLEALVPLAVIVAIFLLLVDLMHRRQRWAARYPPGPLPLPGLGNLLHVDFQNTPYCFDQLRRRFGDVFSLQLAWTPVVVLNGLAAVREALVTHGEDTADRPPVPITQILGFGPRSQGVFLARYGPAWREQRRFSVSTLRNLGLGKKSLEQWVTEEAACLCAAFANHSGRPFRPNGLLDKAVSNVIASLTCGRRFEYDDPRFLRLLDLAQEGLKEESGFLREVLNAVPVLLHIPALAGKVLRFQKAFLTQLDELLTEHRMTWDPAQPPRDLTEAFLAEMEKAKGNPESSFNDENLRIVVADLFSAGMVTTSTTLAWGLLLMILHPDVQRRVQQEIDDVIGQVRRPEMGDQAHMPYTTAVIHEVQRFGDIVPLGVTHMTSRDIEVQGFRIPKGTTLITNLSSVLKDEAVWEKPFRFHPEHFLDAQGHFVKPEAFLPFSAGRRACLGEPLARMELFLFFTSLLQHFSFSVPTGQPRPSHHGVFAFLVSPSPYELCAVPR
Cytochrome P450 2C9, sequence (P11712 whole entry): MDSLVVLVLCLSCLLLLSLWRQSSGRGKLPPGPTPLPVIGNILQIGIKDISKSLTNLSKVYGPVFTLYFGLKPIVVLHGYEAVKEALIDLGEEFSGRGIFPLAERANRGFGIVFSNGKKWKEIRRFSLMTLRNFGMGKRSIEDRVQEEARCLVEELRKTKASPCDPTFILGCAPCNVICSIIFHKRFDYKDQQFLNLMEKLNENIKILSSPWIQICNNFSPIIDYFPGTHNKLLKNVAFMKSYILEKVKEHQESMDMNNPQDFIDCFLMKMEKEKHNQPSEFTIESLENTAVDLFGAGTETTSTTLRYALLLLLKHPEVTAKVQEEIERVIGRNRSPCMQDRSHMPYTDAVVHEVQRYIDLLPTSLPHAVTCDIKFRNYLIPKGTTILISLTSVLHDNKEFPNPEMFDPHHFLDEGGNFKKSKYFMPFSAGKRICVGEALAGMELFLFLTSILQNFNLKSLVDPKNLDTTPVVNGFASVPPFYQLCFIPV

Usually half-life stands for how long it takes for the measured level to halve. Broadly, the IC50 is the concentration at which inhibition is half-maximal. Broadly, the bioavailability is the share of a dose that reaches the circulation, judged against a reference dose that is usually intravenous. A low value points to poor availability. As a reminder, the Tmax is the time from dosing to the highest level. Usually Cmax stands for the maximum level reached in the sampled fluid or tissue. A word on the clearance: it is the volume of plasma or blood freed of the substance per unit of time. Low readings indicate inefficient removal, high ones efficient removal. Broadly, the CL/F is the apparent clearance, not corrected for the fraction that reaches the circulation. `O=C(COc1ccc(Br)cc1)Nc1ccc2nc[nH]c2c1`: the half-life is > 5 h in series [1]; 3.27 h in series [2]; > 50 h in series [3]; 12.6 h in series [8]; 7.6 h in [12]. In addition, the half-maximal inhibitory concentration (IC50) at Cytochrome P450 2C9 was > 50 µM; on Cytochrome P450 2C19 it was > 50 µM; against Cytochrome P450 1A2, > 50 µM; in [5], > 50 µM; on Cytochrome P450 3A4 it was 19.6 µM; against P2Y purinoceptor 6, 89.7 µM. The IC50 is > 100 µM against P2Y purinoceptor 12 and > 50 µM against Cytochrome P450 2D6. In series [4], this molecule returned a bioavailability of 75%. Further, the Activity result in the series with HEK-293T and in the series on HUVEC was “Non-Toxic” each time. Also, the Tmax was 0.3 h in [6] and 0.533 h in [11]. In addition, the AUC in [7] was found to be 1765 µg/L/h; in series [13] it was 2845 µg/L/h. The maximum concentration (Cmax) in [9] was determined as 1.53 µg/mL; in [14] it was 2.9 µg/mL. The clearance in series [10] is 0.21 L/h/kg. In addition, in series [15], the CL/F amounted to 0.888 L/h/kg.

By inhibition is commonly meant the percentage by which the read-out fell short of the control. Lower therefore signals little suppression. `O=C(COc1ccc(Cl)cc1)Nc1ccc2cccnc2c1` registered an inhibition in series [16] (HEK293, dose 100.0 nM) of 12.1%.

For `Cc1ccc(OCC(=O)Nc2ccc3cc[nH]c3c2)cc1`, the inhibition in [16] (setting [17]) came out at 48.3%.

`O=Cc1ccc(OCC(=O)Nc2ccc3cccnc3c2)cc1`: in series [16] (HEK293, dose 100.0 nM), the inhibition was found to be 17.6%.

Molecule `O=C(COc1ccc(Br)cc1)Nc1ccc2cccnc2c1` yielded an inhibition in [16] (HEK293, dose 100.0 nM) of 15.2%.

In turn, `Cc1ccc(OCC(=O)Nc2ccc3ncsc3c2)cc1` gave an inhibition in [16] (HEK293, dose 100.0 nM) of 17.9%.

Regarding `Cc1ccc(OCC(=O)Nc2ccc3ncoc3c2)cc1`, the inhibition in [16] (HEK293, dose 100.0 nM) was found to be 32%.

The molecule `CC(C)c1ccc(OCC(=O)Nc2ccc3nc[nH]c3c2)cc1` had an inhibition in series [16] (HEK293, dose 100.0 nM) of 21.8%.

Take `Cc1ccc(OCC(=O)Nc2ccc3sccc3c2)cc1`: the inhibition in series [16] (setting [17]) was 41.3%.

In [16] (HEK293, dose 100.0 nM), `O=C(COc1ccc(CO)cc1)Nc1ccc2cccnc2c1` gave an inhibition of 16.3%.

Consider `Cc1ccc(OCC(=O)Nc2ccc3cn[nH]c3c2)cc1`, for which the inhibition in [16] (HEK293, dose 100.0 nM) was 11.3%.

Consider `O=C(COc1ccc(C(F)(F)F)cc1)Nc1ccc2cccnc2c1`, for which, in series [16] (HEK293, dose 100.0 nM), the inhibition stood at 38.3%.

For `COc1ccc(OCC(=O)Nc2ccc3nc[nH]c3c2)cc1`, the inhibition in series [16] (HEK293, dose 100.0 nM) was determined as 10.2%.

For `O=Cc1ccc(OCC(=O)Nc2ccc3nc[nH]c3c2)cc1`, in series [16] (setting [17]), the inhibition turned out to be 95.2%. At P2Y purinoceptor 14, the IC50 amounted to 0.0013 µM.
